According to PubChem BioAssay AID2060505 (Molecular Pharmacology Branch, DTP, NCI, 2025):

System: 633275-114-R-J1-PDC complex spheroids, viability
Assay: Anticancer human tumor 633275-114-R-J1-PDC patient-derived endometrial adenocarcinoma cell line growth inhibition [GQUAD]
Settings: for IC50: curve of first compound; for viability, T/C: stronger effect = lower value
Method in brief: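 Multi-cell-type spheroids of tumor cells with HUVEC and mesenchymal stem cells, treated with drug combinations. Concentrations descend in half-log steps from near clinical Cmax, or from 10 microM where Cmax is unknown; viability read-out.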

[1] = second compound 0.0316 µM, first compound 0.0316 µM
[2] = second compound 0.0316 µM, first compound 0.316 µM
[3] = second compound 0.1 µM, first compound 0.0316 µM
[4] = second compound 0.1 µM, first compound 0.316 µM
[5] = second compound 0.316 µM, first compound 0.0316 µM
[6] = second compound 0.316 µM, first compound 0.316 µM
[7] = second compound 1 µM, first compound 0.0316 µM
[8] = second compound 1 µM, first compound 0.316 µM
[9] = second compound 3.16 µM, first compound 0.0316 µM
[10] = second compound 3.16 µM, first compound 0.316 µM
[11] = second compound 10 µM, first compound 0.0316 µM
[12] = second compound 10 µM, first compound 0.316 µM
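Note: spheroids exposed to the agents for seven days.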
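Throughout, for viability, T/C: percent of DMSO vehicle control viability which is 100%.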

Cn1ncnc1[C@H]1c2n[nH]c(=O)c3cc(F)cc(c23)N[C@@H]1c1ccc(F)cc1 + Cc1[nH]c2ccc(F)cc2c1-c1nc2c3cccnc3c3ncccc3c2[nH]1
IC50 (second compound 0.0316 µM): > 0.316 µM
IC50 (second compound 0.1 µM): > 0.316 µM
IC50 (second compound 0.316 µM): > 0.316 µM
IC50 (second compound 1 µM): > 0.316 µM
IC50 (second compound 3.16 µM): 0.257 µM
IC50 (second compound 10 µM): > 0.316 µM
viability, T/C (second compound 0.0316 µM, first compound 0.000999 µM): 96.6%
viability, T/C (second compound 0.0316 µM, first compound 0.00316 µM): 83.2%
viability, T/C (second compound 0.0316 µM, first compound 0.00999 µM): 83.7%
viability, T/C [1]: 75.4%
viability, T/C (second compound 0.0316 µM, first compound 0.0999 µM): 66.8%
viability, T/C [2]: 64.4%
viability, T/C (second compound 0.1 µM, first compound 0.000999 µM): 93%
viability, T/C (second compound 0.1 µM, first compound 0.00316 µM): 93%
viability, T/C (second compound 0.1 µM, first compound 0.00999 µM): 91.7%
viability, T/C [3]: 75.5%
viability, T/C (second compound 0.1 µM, first compound 0.0999 µM): 67.1%
viability, T/C [4]: 57.6%
viability, T/C (second compound 0.316 µM, first compound 0.000999 µM): 92.7%
viability, T/C (second compound 0.316 µM, first compound 0.00316 µM): 92%
viability, T/C (second compound 0.316 µM, first compound 0.00999 µM): 82.6%
viability, T/C [5]: 82.4%
viability, T/C (second compound 0.316 µM, first compound 0.0999 µM): 69.1%
viability, T/C [6]: 57.2%
viability, T/C (second compound 1 µM, first compound 0.000999 µM): 91%
viability, T/C (second compound 1 µM, first compound 0.00316 µM): 85.4%
viability, T/C (second compound 1 µM, first compound 0.00999 µM): 79.1%
viability, T/C [7]: 72.6%
viability, T/C (second compound 1 µM, first compound 0.0999 µM): 66.6%
viability, T/C [8]: 54.2%
viability, T/C (second compound 3.16 µM, first compound 0.000999 µM): 74%
viability, T/C (second compound 3.16 µM, first compound 0.00316 µM): 66.6%
viability, T/C (second compound 3.16 µM, first compound 0.00999 µM): 65.1%
viability, T/C [9]: 61.2%
viability, T/C (second compound 3.16 µM, first compound 0.0999 µM): 52.3%
viability, T/C [10]: 49.4%
viability, T/C (second compound 10 µM, first compound 0.000999 µM): 73.7%
viability, T/C (second compound 10 µM, first compound 0.00316 µM): 77.7%
viability, T/C (second compound 10 µM, first compound 0.00999 µM): 66.5%
viability, T/C [11]: 60.2%
viability, T/C (second compound 10 µM, first compound 0.0999 µM): 55.9%
viability, T/C [12]: 51.8%

O=C(c1cc(Cc2n[nH]c(=O)c3ccccc23)ccc1F)N1CCN(C(=O)C2CC2)CC1 + Cc1[nH]c2ccc(F)cc2c1-c1nc2c3cccnc3c3ncccc3c2[nH]1
IC50 (second compound 0.0316 µM): > 10 µM
IC50 (second compound 0.1 µM): > 10 µM
IC50 (second compound 0.316 µM): > 10 µM
IC50 (second compound 1 µM): > 10 µM
IC50 (second compound 3.16 µM): 8.31 µM
IC50 (second compound 10 µM): > 10 µM
viability, T/C [1]: 90%
viability, T/C (second compound 0.0316 µM, first compound 0.1 µM): 88.3%
viability, T/C [2]: 88%
viability, T/C (second compound 0.0316 µM, first compound 1 µM): 84.7%
viability, T/C (second compound 0.0316 µM, first compound 3.16 µM): 80.5%
viability, T/C (second compound 0.0316 µM, first compound 10 µM): 64.5%
viability, T/C [3]: 98%
viability, T/C (second compound 0.1 µM, first compound 0.1 µM): 89.9%
viability, T/C [4]: 94%
viability, T/C (second compound 0.1 µM, first compound 1 µM): 79.5%
viability, T/C (second compound 0.1 µM, first compound 3.16 µM): 80%
viability, T/C (second compound 0.1 µM, first compound 10 µM): 56.9%
viability, T/C [5]: 92.1%
viability, T/C (second compound 0.316 µM, first compound 0.1 µM): 93%
viability, T/C [6]: 88.8%
viability, T/C (second compound 0.316 µM, first compound 1 µM): 83.1%
viability, T/C (second compound 0.316 µM, first compound 3.16 µM): 76%
viability, T/C (second compound 0.316 µM, first compound 10 µM): 55.4%
viability, T/C [7]: 90.6%
viability, T/C (second compound 1 µM, first compound 0.1 µM): 89.7%
viability, T/C [8]: 88.4%
viability, T/C (second compound 1 µM, first compound 1 µM): 77.1%
viability, T/C (second compound 1 µM, first compound 3.16 µM): 74.1%
viability, T/C (second compound 1 µM, first compound 10 µM): 56.7%
viability, T/C [9]: 69.8%
viability, T/C (second compound 3.16 µM, first compound 0.1 µM): 67.4%
viability, T/C [10]: 68.4%
viability, T/C (second compound 3.16 µM, first compound 1 µM): 63.5%
viability, T/C (second compound 3.16 µM, first compound 3.16 µM): 59.5%
viability, T/C (second compound 3.16 µM, first compound 10 µM): 48.2%
viability, T/C [11]: 68.9%
viability, T/C (second compound 10 µM, first compound 0.1 µM): 66.5%
viability, T/C [12]: 70.2%
viability, T/C (second compound 10 µM, first compound 1 µM): 62.1%
viability, T/C (second compound 10 µM, first compound 3.16 µM): 61.1%
viability, T/C (second compound 10 µM, first compound 10 µM): 49.4%
